The text below walks through data of US6797714B2, “Carboxyl substituted chroman derivatives useful as beta 3 adrenoreceptor agonists” (Bayer Pharmaceuticals Corporation, priority 1997, dated 2004).

Broadly, the melting point is the temperature of the solid-liquid transition. In turn, `CCOC(=O)c1ccc2c(c1)CCC(CNC[C@H](O)c1cccc(Cl)c1)O2.Cl` (some centres unmarked) registered a melting point of 234 to 235 °C.
In turn, `CCOC(=O)CCc1ccc2c(c1)CCC(CNC[C@H](O)c1cccc(Cl)c1)O2.Cl` (some centres unmarked) had a melting point of 189 to 190 °C.
